The results in this text go back to PMC2686105, “Role of the stage-regulated nucleoside transporter TbNT10 in differentiation and adenosine uptake in Trypanosoma brucei” (Molecular and Biochemical Parasitology, 2007).

Each structure is given as a SMILES string.

In this test the target is T1, TbNT10 (Trypanosoma brucei, UniProt Q38EK0).
T1 construct: gene Tb09.160.5480; endogenous in procyclic forms and re-expressed (addback clone A) from an EP procyclin locus in the TbNT10 null mutant
In words: 3H-adenosine uptake; wild type, null mutant and addback procyclic cells. It is filed as cell-based. The note with it: procyclic forms; 5 min; labelled compound; transporter activity judged by null mutant versus addback.

T1 sequence (Q38EK0 entry or part of it): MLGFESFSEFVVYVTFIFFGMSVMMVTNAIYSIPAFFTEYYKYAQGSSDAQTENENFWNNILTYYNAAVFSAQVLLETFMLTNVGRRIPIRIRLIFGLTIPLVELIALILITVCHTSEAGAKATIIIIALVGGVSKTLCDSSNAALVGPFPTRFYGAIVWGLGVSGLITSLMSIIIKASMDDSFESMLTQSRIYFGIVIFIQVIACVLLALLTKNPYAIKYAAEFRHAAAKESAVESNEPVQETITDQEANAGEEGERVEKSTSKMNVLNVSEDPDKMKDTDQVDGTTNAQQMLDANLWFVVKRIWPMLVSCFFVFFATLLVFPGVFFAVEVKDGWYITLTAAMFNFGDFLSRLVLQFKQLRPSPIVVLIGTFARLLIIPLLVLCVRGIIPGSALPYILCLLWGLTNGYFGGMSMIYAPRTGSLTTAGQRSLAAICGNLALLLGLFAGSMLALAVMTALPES

As for `Nc1ncnc2c1ncn2[C@@H]1O[C@H](CO)[C@@H](O)[C@H]1O` [adenosine], the “3H-adenosine uptake; wild type, null mutant and addback procyclic cells” value is “it is the main transporter for adenosine in this life cycle stage”.
